From patent US10647713B2 (Nimbus Lakshmi, Inc., priority 2016, dated 2020)

Biological target: human TYK2 (JH2domain-pseudokinase) (Homo sapiens (Human), UniProt P29597)
Assay: TYK2 JH2 Domain Binding Assay (KINOMEscan, DiscoveRx)
Settings: 11-point dilution, duplicate
Summary of the method: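 TYK2 JH2 (G556–D888)–NFkB DBD fusion, DNA-tagged, from HEK293 extracts (<0.1 nM) competed against immobilised biotinylated ligand for 1 h at room temperature, 0.9% DMSO. Bead-retained kinase quantified by qPCR; Kd from 11-point 3-fold series (top 30,000 nM, duplicate), Hill fit with slope −1.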

human TYK2 (JH2domain-pseudokinase), sequence (P29597 556-888): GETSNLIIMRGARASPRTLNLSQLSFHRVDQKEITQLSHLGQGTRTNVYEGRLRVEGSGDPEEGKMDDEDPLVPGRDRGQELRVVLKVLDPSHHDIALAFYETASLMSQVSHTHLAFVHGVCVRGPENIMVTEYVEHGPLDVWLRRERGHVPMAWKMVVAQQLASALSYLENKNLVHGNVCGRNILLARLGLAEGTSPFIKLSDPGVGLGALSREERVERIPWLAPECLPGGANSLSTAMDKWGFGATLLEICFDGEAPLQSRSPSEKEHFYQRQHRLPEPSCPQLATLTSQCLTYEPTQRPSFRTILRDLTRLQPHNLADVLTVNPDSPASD

`Cc1nc2c(Nc3ccc(-c4nc(C)sc4C)cc3S(C)(=O)=O)cc(Nc3cnc(C)c(C)n3)nc2[nH]1` [I-581, N5-(5,6-dimethylpyrazin-2-yl)-N7-(4-(2,5-dimethylthiazol-4-yl)-2-(methylsulfonyl)phenyl)-2-methyl-3H-imidazo[4,5-b]pyridine-5,7-diamine] was tested, and the Kd was 0.1 to 0.5 nM.

With `COc1cc(-c2nc(C)c(C)s2)ccc1Nc1cc(NC(=O)C2CC2)nc2[nH]c(C(F)F)nc12` [I-582, N-(2-(difluoromethyl)-7-((4-(4,5-dimethylthiazol-2-yl)-2-methoxyphenyl)amino)-3H-imidazo[4,5-b]pyridin-5-yl)cyclopropanecarboxamide] the Kd was over 10 nM.

Molecule `Cc1nc2c(Nc3ccc(-c4cc(C)n(C)n4)cc3S(C)(=O)=O)cc(Nc3cccc(C#N)n3)nc2[nH]1` [I-583, 6-((7-((4-(1,5-dimethyl-1H-pyrazol-3-yl)-2-(methylsulfonyl)phenyl)amino)-2-methyl-3H-imidazo[4,5-b]pyridin-5-yl)amino)picolinonitrile] has a Kd of 0.1 to 0.5 nM.

For `COCCCc1cnc(-c2ccc(Nc3cc(NC(=O)C4CC4)nc4[nH]c(C(F)F)nc34)c(S(C)(=O)=O)c2)s1` [I-584, N-(2-(difluoromethyl)-7-((4-(5-(3-methoxypropyl)thiazol-2-yl)-2-(methylsulfonyl)phenyl)amino)-3H-imidazo[4,5-b]pyridin-5-yl)cyclopropanecarboxamide], the Kd was 0.1 to 0.5 nM.

With `Cc1nc2c(Nc3ccc(-c4cnn(C)c4C)cc3S(C)(=O)=O)cc(Nc3cccc(C(F)(F)F)n3)nc2[nH]1` [I-585, N7-(4-(1,5-dimethyl-1H-pyrazol-4-yl)-2-(methylsulfonyl)phenyl)-2-methyl-N5-(6-(trifluoromethyl)pyridin-2-yl)-3H-imidazo[4,5-b]pyridine-5,7-diamine] the Kd was 0.1 to 0.5 nM.

Molecule `Cc1nc2c(Nc3ccc([C@H]4CCCCO4)cc3S(C)(=O)=O)cc(Nc3cc4n(n3)CCOC4)nc2[nH]1` [I-587, (R)—N5-(6,7-dihydro-4H-pyrazolo[5,1-c][1,4]oxazin-2-yl)-2-methyl-N7-(2-(methylsulfonyl)-4-(tetrahydro-2H-pyran-2-yl)phenyl)-3H-imidazo[4,5-b]pyridine-5,7-diamine] has a Kd of 0.1 to 0.5 nM.

In the case of `CS(=O)(=O)c1cc(C2COCCO2)ccc1Nc1cc(NC(=O)C2CC2)nc2[nH]c(C(F)F)nc12` (centres unmarked) [I-588, N-(7-((4-(1,4-dioxan-2-yl)-2-(methylsulfonyl)phenyl)amino)-2-(difluoromethyl)-3H-imidazo[4,5-b]pyridin-5-yl)cyclopropanecarboxamide], the Kd is reported as 0.1 to 0.5 nM.

For `COc1cc(-c2cc(C)n(C)n2)ccc1Nc1cc(NC(=O)C2CC2)nc2[nH]c(C(F)F)nc12` [I-589, N-(2-(difluoromethyl)-7-((4-(1,5-dimethyl-1H-pyrazol-3-yl)-2-methoxyphenyl)amino)-3H-imidazo[4,5-b]pyridin-5-yl)cyclopropanecarboxamide], the Kd was 1 to 10 nM.

`COc1cc(-c2cc(C)n(C)n2)ccc1Nc1cc(NC(=O)C2CC2)nc2[nH]c(C)nc12` [I-590, N-(7-((4-(1,5-dimethyl-1H-pyrazol-3-yl)-2-methoxyphenyl)amino)-2-methyl-3H-imidazo[4,5-b]pyridin-5-yl)cyclopropanecarboxamide] was tested, and the Kd was 1 to 10 nM.

For `Cc1nc2c(Nc3ccc([C@H]4CCC(C)(C)O4)cc3S(C)(=O)=O)cc(NC(=O)C3CC3)nc2[nH]1` [I-591, (R)—N-(7-((4-(5,5-dimethyltetrahydrofuran-2-yl)-2-(methylsulfonyl)phenyl)amino)-2-methyl-3H-imidazo[4,5-b]pyridineyl)cyclopropanecarboxamide], the Kd was 0.1 to 0.5 nM.

With `Cc1nc2c(Nc3ccc([C@@H]4CCC(C)(C)O4)cc3S(C)(=O)=O)cc(NC(=O)C3CC3)nc2[nH]1` [I-592, (S)—N-(7-((4-(5,5-dimethyltetrahydrofuran-2-yl)-2-(methylsulfonyl)phenyl)amino)-2-methyl-3H-imidazo[4,5-b]pyridin-5-yl)cyclopropanecarboxamide] the Kd was 0.5 to 1 nM.

`CS(=O)(=O)c1cc([C@H]2CCC(F)(F)CO2)ccc1Nc1cc(NC(=O)C2CC2)nc2[nH]c(C(F)F)nc12` [I-593, (R)—N-(2-(difluoromethyl)-7-((4-(5,5-difluorotetrahydro-2H-pyran-2-yl)-2-(methylsulfonyl)phenyl)amino)-3H-imidazo[4,5-b]pyridin-5-yl)cyclopropanecarboxamide] gave a Kd of 1 to 10 nM.

`CS(=O)(=O)c1cc([C@@H]2CCC(F)(F)CO2)ccc1Nc1cc(NC(=O)C2CC2)nc2[nH]c(C(F)F)nc12` [I-594, (S)—N-(2-(difluoromethyl)-7-((4-(5,5-difluorotetrahydro-2H-pyran-2-yl)-2-(methylsulfonyl)phenyl)amino)-3H-imidazo[4,5-b]pyridin-5-yl)cyclopropanecarboxamide] was tested, and the Kd was 0.1 to 0.5 nM.

`Cc1nc2c(Nc3ccc([C@H]4CCCO4)cc3S(C)(=O)=O)cc(Nc3ccc(C(C)C)c(C#N)n3)nc2[nH]1` [I-595, (R)-3-isopropyl-6-((2-methyl-7-((2-(methylsulfonyl)-4-(tetrahydrofuran-2-yl)phenyl)amino)-3H-imidazo[4,5-b]pyridin-5-yl)amino)picolinonitrile] was tested, and the Kd was 0.1 to 0.5 nM.

`Cc1nc2c(Nc3ccc([C@@H]4CCCO4)cc3S(C)(=O)=O)cc(Nc3ccc(C(C)C)c(C#N)n3)nc2[nH]1` [I-596, (S)-3-isopropyl-6-((2-methyl-7-((2-(methylsulfonyl)-4-(tetrahydrofuran-2-yl)phenyl)amino)-3H-imidazo[4,5-b]pyridin-5-yl)amino)picolinonitrile] showed a Kd of 0.5 to 1 nM.

`Cc1nc2c(Nc3ccccc3S(C)(=O)=O)cc(Nc3cc4c(nn3)CCC4)nc2[nH]1` [I-597, N5-(6,7-dihydro-5H-cyclopenta[c]pyridazin-3-yl)-2-methyl-N7-(2-(methylsulfonyl)phenyl)-3H-imidazo[4,5-b]pyridine-5,7-diamine] gave a Kd of 0.1 to 0.5 nM.

In the case of `COc1c(Nc2cc(Nc3cccc(C#N)n3)nc3[nH]c(C(F)F)nc23)cccc1-c1noc(C)n1` [I-598, 6-((2-(difluoromethyl)-7-((2-methoxy-3-(5-methyl-1,2,4-oxadiazol-3-yl)phenyl)amino)-3H-imidazo[4,5-b]pyridin-5-yl)amino)picolinonitrile], the Kd is reported as 0.5 to 1 nM.

`CS(=O)(=O)c1ccccc1Nc1cc(Nc2cccc(C(F)(F)F)n2)nc2[nH]c(C(F)F)nc12` [I-599] gave a Kd of 0.5 to 1 nM.

`Cc1nc2c(Nc3ccccc3S(C)(=O)=O)cc(Nc3cccc(C(F)(F)F)n3)nc2[nH]1` [I-600, 2-methyl-N7-(2-(methylsulfonyl)phenyl)-N5-(6-(trifluoromethyl)pyridin-2-yl)-3H-imidazo[4,5-b]pyridine-5,7-diamine] gave a Kd of 0.1 to 0.5 nM.

For `Cc1nc2c(Nc3ccc(C4CCC(C)(C)CO4)cc3S(C)(=O)=O)cc(Nc3cnc(C)c(C)n3)nc2[nH]1` (centres unmarked) [I-601, N5-(5,6-dimethylpyrazin-2-yl)-N7-(4-(5,5-dimethyltetrahydro-2H-pyran-2-yl)-2-(methylsulfonyl)phenyl)-2-methyl-3H-imidazo[4,5-b]pyridine-5,7-diamine], the Kd was 0.5 to 1 nM.

`CS(=O)(=O)c1ccccc1Nc1cc(Nc2cccc(C#N)n2)nc2[nH]c(C(F)F)nc12` [I-602, 6-((2-(difluoromethyl)-7-((2-(methylsulfonyl)phenyl)amino)-3H-imidazo[4,5-b]pyridin-5-yl)amino)picolinonitrile] showed a Kd of under 0.1 nM.

In the case of `Cc1nc2c(Nc3ccccc3S(C)(=O)=O)cc(Nc3cccc(C#N)n3)nc2[nH]1` [I-603, 6-((2-methyl-7-((2-(methylsulfonyl)phenyl)amino)-3H-imidazo[4,5-b]pyridin-5-yl)amino)picolinonitrile], the Kd is reported as 0.1 to 0.5 nM.

Work on `Cc1nc2c(Nc3ccc(C4COCCO4)cc3S(C)(=O)=O)cc(NC(=O)C3CC3)nc2[nH]1` (centres unmarked) [I-604, N-(7-((4-(1,4-dioxan-2-yl)-2-(methylsulfonyl)phenyl)amino)-2-methyl-3H-imidazo[4,5-b]pyridin-5-yl)cyclopropanecarboxamide] yielded a Kd of 0.1 to 0.5 nM.

`Cc1ncc(Nc2cc(Nc3ccc(C4CCC(C)(C)CO4)cc3S(C)(=O)=O)c3nc(C(F)F)[nH]c3n2)nc1C` (centres unmarked) [I-605, 2-(difluoromethyl)-N5-(5,6-dimethylpyrazin-2-yl)-N7-(4-(5,5-dimethyltetrahydro-2H-pyran-2-yl)-2-(methylsulfonyl)phenyl)-3H-imidazo[4,5-b]pyridine-5,7-diamine] gave a Kd of 0.1 to 0.5 nM.

With `COc1c(Nc2cc(Nc3cccc(C(F)(F)F)n3)nc3[nH]c(C)nc23)cccc1-c1cnn(C)n1` [I-606, N7-(2-methoxy-3-(2-methyl-2H-1,2,3-triazol-4-yl)phenyl)-2-methyl-N5-(6-(trifluoromethyl)pyridin-2-yl)-3H-imidazo[4,5-b]pyridine-5,7-diamine] the Kd was 1 to 10 nM.

`CCOc1ccc(Nc2cc(Nc3ccc(F)cc3S(C)(=O)=O)c3nc(C(F)F)[nH]c3n2)nc1C#N` [I-607, 6-((2-(difluoromethyl)-7-((4-fluoro-2-(methylsulfonyl)phenyl)amino)-3H-imidazo[4,5-b]pyridin-5-yl)amino)-3-ethoxypicolinonitrile] gave a Kd of 0.1 to 0.5 nM.

Work on `CCOc1ccc(Nc2cc(Nc3ccc(F)cc3S(C)(=O)=O)c3nc(C)[nH]c3n2)nc1C#N` [I-608, 3-ethoxy-6-((7-((4-fluoro-2-(methylsulfonyl)phenyl)amino)-2-methyl-3H-imidazo[4,5-b]pyridin-5-yl)amino)picolinonitrile] yielded a Kd of 0.1 to 0.5 nM.

Molecule `Cc1nc2c(Nc3ccc([C@H]4CCC(C)(C)CO4)cc3S(C)(=O)=O)cc(Nc3cnc(C)c(C)n3)nc2[nH]1` [I-609, (R)—N5-(5,6-dimethylpyrazin-2-yl)-N7-(4-(5,5-dimethyltetrahydro-2H-pyran-2-yl)-2-(methylsulfonyl)phenyl)-2-methyl-3H-imidazo[4,5-b]pyridine-5,7-diamine] has a Kd of 0.1 to 0.5 nM.

Work on `Cc1nc2c(Nc3ccc([C@@H]4CCC(C)(C)CO4)cc3S(C)(=O)=O)cc(Nc3cnc(C)c(C)n3)nc2[nH]1` [I-610, (S)—N5-(5,6-dimethylpyrazin-2-yl)-N7-(4-(5,5-dimethyltetrahydro-2H-pyran-2-yl)-2-(methylsulfonyl)phenyl)-2-methyl-3H-imidazo[4,5-b]pyridine-5,7-diamine] yielded a Kd of 1 to 10 nM.
